The data set is described as follows: Tritosomal stability of p-nitrophenyl glycosides. It counts as in vitro ADME, rat. As to conditions: for Readings from spectrometer, absorbance at 410 nm, Assay 1 / Readings from spectrometer, absorbance at 410 nm, Assay 2: rat, pH 5.5; for tritosomal cleavage (production of p-nitrophenol, absorbance at 410 nm): substrate 31.0 mg/ml in DMSO, 37° C., after 20 hours. From the text:
One essential facet of the LEAPT concept is that the rhamnoside-capped prodrugs will be cleaved only by the selectively delivered naringinase construct. To ensure that this is possible, a lysosomal tritosome preparation was used to assess the potential cleavage of α-L-rhamnopyranosides by enzymes in the hepatocytes. p-Nitrophenyl α-L-rhamnopyranoside was used as a chromogenic prodrug mimic. If there are enzymes present in the hepatocytes capable of cleaving α-L-rhamnopyranosidic linkages, this would be detected over an extended assay by the production of p-nitrophenol. Assay conditions based on those used in 2.2.4 were recreated with the used of pNP-α-L-Rha instead of the protease substrate. The mixture was incubated at 37° C. and the absorbance at 410 nm recorded every 5 minutes.
With the concentration of pNP-α-L-Rha increased ten-fold, the tritosomal stability of rhamnopyranosides was reassessed.
Further assessments of the glycosidic enzymes present in the tritosomal preparation were required to allow further design of prodrugs. An assay equivalent to 2.8.7 was used to assess β-D-galactopyranosidic activity.
Further assessments of the glycosidic enzymes present in the tritosomal preparation were required to allow further design of prodrugs. An assay equivalent to 2.3.7 was used to assess β-D-glucopyranosidic activity.
A stock solution of p-nitrophenyl α-L-rhamnopyranoside in DMSO (3.1 mg/ml, equivalent to BzPheValArgNap solution) was used in an assay equivalent to 2.8.4.
As no activity against α-L-rhamnopyranosides was detected in the previous assay, a higher concentration of pNPαL-Rha (31.0 mg/ml) in DMSO was used in an otherwise identical assay. In addition, the cuvette was incubated at 37° C. for 20 hours and the absorbance reading repeated.
A stock solution of p-nitrophenyl β-D-galactopyranoside in DMSO (31.0 mg/ml) was used in an assay equivalent to 2.8.7. In addition, the cuvette was incubated at 37° C. for 20 hours and the absorbance reading repeated.
A stock solution of p-nitrophenyl β-D-glucopyranoside in DMSO (31.0 mg/ml) was used in an assay equivalent to 2.8.7. In addition, the cuvette was incubated at 37° C. for 20 hours and the absorbance reading repeated.

Each structure is given as a SMILES string.

Turning to `C[C@@H]1O[C@@H](Oc2ccc([N+](=O)[O-])cc2)[C@H](O)[C@H](O)[C@H]1O` [pNP-α-L-Rha, p-Nitrophenyl α-L-rhamnopyranoside], the “Readings from spectrometer, absorbance at 410 nm, Assay 1” value (shortened to “Readings from spectrometer … Assay 1”) was 0.158 (0 min, 0.093 mg/ml); 0.173 (0 min, 0.93 mg/ml); 0.155 (5 min, 0.093 mg/ml); 0.169 (5 min, 0.93 mg/ml); 0.153 (10 min, 0.093 mg/ml); 0.166 (10 min, 0.93 mg/ml). Besides, the “Readings from spectrometer … Assay 1” value by setting is: (15 min, 0.093 mg/ml) 0.151; (15 min, 0.93 mg/ml) 0.165; (20 min, 0.093 mg/ml) 0.150; (20 min, 0.93 mg/ml) 0.162; (25 min, 0.093 mg/ml) 0.150; (25 min, 0.93 mg/ml) 0.161. The “Readings from spectrometer … Assay 1” value came out at 0.149 (30 min, 0.093 mg/ml); 0.158 (30 min, 0.93 mg/ml); 0.138 (20 h, 0.93 mg/ml). Also, the “Readings from spectrometer, absorbance at 410 nm, Assay 2” value (“Readings from spectrometer … Assay 2” below) stood at 0.160 (0 min, 0.093 mg/ml); 0.172 (0 min, 0.93 mg/ml); 0.159 (5 min, 0.093 mg/ml); 0.170 (5 min, 0.93 mg/ml); 0.159 (10 min, 0.093 mg/ml); 0.167 (10 min, 0.93 mg/ml). The “Readings from spectrometer … Assay 2” value reads like this: (15 min, 0.093 mg/ml) 0.158; (15 min, 0.93 mg/ml) 0.166; (20 min, 0.093 mg/ml) 0.159; (20 min, 0.93 mg/ml) 0.164; (25 min, 0.093 mg/ml) 0.157; (25 min, 0.93 mg/ml) 0.165. Also, the “Readings from spectrometer … Assay 2” value by setting is: (30 min, 0.093 mg/ml) 0.157; (30 min, 0.93 mg/ml) 0.163; (20 h, 0.93 mg/ml) 0.131.
For `O=[N+]([O-])c1ccc(O[C@@H]2O[C@H](CO)[C@H](O)[C@H](O)[C@H]2O)cc1` [pNP-β-D-Gal, p-nitrophenyl β-D-galactopyranoside], the “tritosomal cleavage (production of p-nitrophenol, absorbance at 410 nm)” value is “significant amount of p-nitrophenol had been released”.
On the same count and under the same terms, as for `O=[N+]([O-])c1ccc(O[C@@H]2O[C@H](CO)[C@@H](O)[C@H](O)[C@H]2O)cc1` [pNP-β-D-Glc, p-nitrophenyl β-D-glucopyranoside], the entry is “significant amount of p-nitrophenol had been released”.

The record behind these values is patent publication US20070253942A1, “Lectin-directed prodrug delivery system” (Isis Innovation Limited, priority 2001, published 2007).
